{"source": "patent US20190307820A1", "about": "“COMPOSITIONS AND METHODS OF USING STAT1/3 INHIBITORS WITH ONCOLYTIC HERPES VIRUS” (priority 2016, published 2019)", "key": {"ICP4": {"tested_on": "ICP4", "test": "Western blot of ICP4 in HSV-1 infected microglia cells", "assay_type": "cell-based", "conditions": "G207 infected; 1 μM C16, 1 μM Bay11 or 100 μM AG; 24 hours", "protocol": "FIG. 12B depicts an electrophoresis gel showing total proteins that were harvested from G2O7 infected microglia cells at 24 hours post treatment with either 1 μM of C16, 1 μM of Bay11, or 100 μM of AG. ICP27, ICP4, and […] expression was measured by western blot assay. U87 and MG co-culture were pretreated with 0.5 μM of C16 for 1 hour.\nTotal protein was harvested with sample buffer (125 mM Tris-HCL, 50% Glycerol, […] and 5% 2-mercaptoethanol) and boiled for 5 minutes. Protein samples were subjected to SDS-PAGE (8% gel), transferred to nitrocellulose membranes and blocked in 5% nonfat milk (Bio Rad) in TBS-Tween 20 (TBS-T) for 1 hour at room temperature. The membranes were then incubated with primary antibody against β-actin at 1:1000 (Cell Signaling, Danvers, Mass.) or anti-STAT1 antibody at 1:1000 (Cell Signaling, Danvers, Mass.) or anti-STAT3 antibody at 1:1000 (Cell Signaling, Danvers, Mass.) or anti-phospho STAT1 antibody (Tyr701) at 1:1000 (Cell Signaling, Danvers, Mass.) or anti-phospho STAT3 antibody (Tyr705) at 1:1500 (Cell Signaling, Danvers, Mass.) or anti-phosphor-eIF2a antibody (ser51) at 1:1000 (Cell Signaling, Danvers, Mass.) or anti-ICP27 antibody at 1:1000 (Abcam, Cambridge, Mass.) or anti-ICP4 antibody at 1:750 (Abcam, Cambridge, Mass.) for overnight at 4° C. […] Band density was measured by using ImageJ software (NIH, Bethesda, Md.). […]"}, "[1]": {"tested_on": "oHSV-1 (G207) in BV2 cells", "test": "G207 replication in BV2 cells with chemical inhibitors, plaque forming assay", "assay_type": "cell-based, HSV-1", "conditions": "G207 MOI of 1, 48 hours", "protocol": "(§1) FIG. 12A contains bar graphs showing the results of BV2 cells that were pre-treated with indicated chemical compounds for 1-2 hours and then infected with oHSV-1 at an MOI of 1. Viruses were harvested after 48 hours of oHSV-1 (G207) and indicated chemical inhibitor treatment.\nas §1, with “12F is a” for “12A contains”, “graph” for “graphs”, “treatment. After 48 hours of treatment with oHSV-1 (G207) and C16, viruses were harvested and titrated by plaque forming assay on vero cells.” for “treatment.”\nU87 (5×104) alone or U87+microglia co-culture (5×104+5×104) or BV2 microglia cells (5×104) alone were seeded into a 24-well plate. After overnight incubation (to allow the cells to attach), cells were pretreated with indicated concentration of NFkB inhibitor, Bay-11 (Santa Cruz, Canada) or an indicated concentration of imidazolo-oxindole derivative C16 (Milipore, Canada) or vehicle for 1-2 hours. The cells were then infected with oHSV-1 (G207 or HrR3) virus at a MOI of 1 in presence of chemical inhibitors for another 2 days. The viruses were harvested and titrated in vero cells by plaque forming assay in 12-well plates by triplicates.\nThe effects of a PKR inhibitor (C16), a NFkappaB inhibitor (Bay11), and an iNOS inhibitor (aminoguanidine hydrochloride) were tested on G207 replication in BV2 cells (Example 15). […] To verify that C16-mediated viral gene transcriptional augmentation is not due to deletions in ICP34.5 and/or ICP6 in G207, the effect of C16 on wild type (KOS) and ICP6 mutated (HrR3) HSV-1 infected BV2 cells was also examined. […] Finally, whether C16 can overcome this microglia-mediated suppression of viral replication in glioma cells was examined."}}, "note": "Counter-ions that a name gives are not always drawn."}
{"smiles": "Cc1ccc(S(=O)(=O)/C=C/C#N)cc1", "note": "[Bay11]", "values": [{"measurement": "upregulated expression of ICP4", "setting": "ICP4", "value": "not"}, {"measurement": "effect on oHSV-1 replication", "setting": "[1]", "value": "no effect on oHSV-1 replication"}]}
{"smiles": "N=C(N)NN", "note": "[aminoguanidine hydrochloride]", "values": [{"measurement": "effect on oHSV-1 replication", "setting": "[1]", "value": "no effect on oHSV-1 replication"}]}
